From the supplement of paper PMC10307832

What was measured:
Assay in all cases: relative viability (nuclei count vs DMSO), 5 days (fraction); higher = more cells survive
[1] = compound: NCC(=O)Nc1ccc(-n2nc(C(F)(F)F)cc2-c2ccc3c(ccc4ccccc43)c2)cc1 + Cc1cc(Nc2cc(N3CCN(C)CC3)nc(Sc3ccc(NC(=O)C4CC4)cc3)n2)n[nH]1 [Tozasertib] (partner 0.1 µM)
Outline: (§1)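 Five library-drug doses in √10 steps were combined with a fixed anchor-drug dose, or a single drug was given alone, by pin tool to lung cancer cell lines in 1536-well plates the day after seeding. Nuclei were stained and counted after 5 days. Relative viability is the nuclei count in treated wells over that in vehicle wells, taken as the median of duplicate plates.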

[2] = compound: C1CSC2=C(C(=O)N1)SC3=C2C=C(C=C3)O [kb NB 142-70] + CCNC(=O)c1noc(-c2cc(C(C)C)c(O)cc2O)c1-c1ccc(CN2CCOCC2)cc1 [Luminespib] (partner 0.01 µM)
Outline: as §1

[3] = compound: NCC(=O)Nc1ccc(-n2nc(C(F)(F)F)cc2-c2ccc3c(ccc4ccccc43)c2)cc1 + COc1cccc2cc(-c3nc([C@H]4CC[C@H](C(=O)O)CC4)n4ncnc(N)c34)[nH]c12 [OSI-027] (partner 0.5 µM)
Outline: as §1

[4] = compound: NCC(=O)Nc1ccc(-n2nc(C(F)(F)F)cc2-c2ccc3c(ccc4ccccc43)c2)cc1 + Cc1nc(NC(=O)N2CCC[C@H]2C(N)=O)sc1-c1ccnc(C(C)(C)C(F)(F)F)c1 [Alpelisib] (partner 2 µM)
Outline: as §1

Cell Line	relative viability ([1]; first compound 0.02 µM)	relative viability ([1]; first compound 0.06325 µM)	relative viability ([1]; first compound 0.2 µM)	relative viability ([1]; first compound 0.6325 µM)	relative viability ([1]; first compound 2 µM)	relative viability ([2]; first compound 0.1 µM)	relative viability ([2]; first compound 1 µM)	relative viability ([2]; first compound 3.162 µM)	relative viability ([3]; first compound 0.02 µM)	relative viability ([3]; first compound 0.06325 µM)	relative viability ([3]; first compound 0.2 µM)	relative viability ([3]; first compound 0.6325 µM)	relative viability ([3]; first compound 2 µM)	relative viability ([4]; first compound 0.02 µM)	relative viability ([4]; first compound 0.06325 µM)	relative viability ([4]; first compound 0.2 µM)	relative viability ([4]; first compound 0.6325 µM)	relative viability ([4]; first compound 2 µM)
NCI-H358	0.0971	0.102	0.12	0.0969	0.0967	0.278	0.152	0.148	0.749	0.842	0.84	0.711	0.834	0.82	0.881	0.931	0.821	0.939
NCI-H441	0.642	0.522	0.747	0.603	0.697	0.397	0.353	0.244	0.647	0.675	0.613	0.551	0.631	0.906	0.715	0.869	1.01	0.654
NCI-H460	0.397	0.591	0.485	0.47	0.394	0.0325	0.0315	0.0216	0.583	0.642	0.696	0.587	0.675	0.576	0.425	0.486	0.491	0.449
NCI-H520	0.492	0.425	0.402	0.424	0.398	0.255	0.247	0.214	0.238	0.265	0.296	0.243	0.234	0.979	0.982	1.04	0.92	0.896
NCI-H596	1	0.911	1.02	0.925	0.903	0.945	1.11	0.876	0.731	0.865	0.83	0.727	0.799	0.63	0.5	0.483	0.553	0.505
NCI-H647	0.286	0.314	0.425	0.233	0.254	0.177	0.184	0.11	0.494	0.681	0.67	0.573	0.773	1.31	1.15	1.21	1.12	0.982
NCI-H650	0.691	0.754	0.761	0.676	0.631	0.76	0.777	0.499	0.508	0.524	0.541	0.443	0.524	0.882	1.24	1.3	1.13	1.37
NCI-H661	0.37	0.343	0.356	0.362	0.341	0.905	0.845	0.805	0.681	0.691	0.724	0.673	0.715	0.82	0.626	0.693	0.758	0.94
NCI-H727	0.648	0.664	0.588	0.502	0.711	0.226	0.346	0.42	0.533	0.504	0.579	0.694	0.737	0.636	0.561	0.614	0.531	0.686
NCI-H838	0.264	0.35	0.299	0.285	0.291	0.374	0.339	0.218	0.406	0.461	0.428	0.425	0.469	0.971	1.01	1.12	0.916	0.933
NCI-H1355	0.558	0.657	0.574	0.57	0.57	0.733	0.683	0.553	0.35	0.427	0.315	0.45	0.511	0.781	0.949	0.825	0.838	0.865
NCI-H1395	0.724	0.75	0.778	0.794	0.706	0.79	0.69	0.464	0.709	0.688	0.693	0.642	0.686	1.04	1.1	1.3	1.13	1.05
NCI-H1437	0.407	0.383	0.413	0.402	0.387	1.12	1.1	0.932	0.889	0.898	0.877	0.881	0.951	0.944	0.995	0.999	0.913	0.918
NCI-H1651	0.703	0.694	0.906	0.588	0.676	0.926	0.856	0.354	0.655	0.929	0.628	0.584	0.803	0.927	0.964	0.969	0.847	0.941
NCI-H1666	0.579	0.63	0.578	0.584	0.572	0.898	0.985	0.81	0.932	0.836	0.945	0.845	0.861	1.07	0.869	0.852	0.937	1.09
NCI-H1734	0.28	0.271	0.276	0.286	0.254	0.185	0.205	0.171	0.561	0.601	0.577	0.594	0.552	0.748	0.759	0.751	0.671	0.775
NCI-H1755	0.626	0.596	0.6	0.591	0.555	0.49	0.45	0.557	0.711	0.68	0.685	0.71	0.759	0.913	0.93	0.917	0.884	0.955
